Here are results for 4 compounds from ChEMBL document CHEMBL1158148, “Characterization of an irritant 4-deoxyphorbol diester from Euphorbia tirucalli” (J Nat Prod, 1979).

The species named for data set [1] is Mus musculus. The data set can be described thus: Toxicity against Swiss-Webster mouse assessed as irritation in ear per 5 ul after 4 hrs. The data set is classed as organism-based. Conditions: in vivo, topical_or_ocular.
Data set [2] is filed under the species Mus musculus. In words: Toxicity against Swiss-Webster mouse assessed as irritation in ear per 5 ul after 24 hrs. The data set is classed as organism-based. Conditions: in vivo, topical_or_ocular.

Take `CCC/C=C/C=C\C(=O)O[C@@H]1[C@@H](C)[C@]2(O)[C@@H]3C=C(C)C(=O)[C@H]3CC(CO)=C[C@H]2[C@@H]2C(C)(C)[C@]12OC(C)=O`: the ID50 worked out at 0.04 µg in the data set filed under Mus musculus [1] and 0.07 µg in the data set listed under Mus musculus [2].
For `CC1=C[C@H]2[C@@]3(O)[C@H](C)[C@@H](OC(=O)c4ccccc4)[C@]4(OC(=O)c5ccccc5)[C@H]([C@@H]3C=C(CO)C[C@]2(O)C1=O)C4(C)C`, in that order: 0.6 µg and 0.83 µg.
For `CCC/C=C/C=C\C(=O)O[C@@H]1[C@@H](C)[C@]2(O)[C@@H]3C=C(C)C(=O)[C@@H]3CC(CO)=C[C@H]2[C@@H]2C(C)(C)[C@]12O`, in that order: above 100 µg and above 100 µg.
On the same counts, the results for `CCCCCCCCCCCCCC(=O)O[C@@H]1[C@@H](C)[C@@]2(O)[C@@H](C=C(CO)C[C@]3(O)C(=O)C(C)=C[C@@H]23)[C@@H]2C(C)(C)[C@]12OC(C)=O` [PHORBOL MYRISTATE ACETATE] are 0.04 µg and 0.05 µg.
